Laboratory results reported in paper PMC8496750, “Identification of the organic anion transporting polypeptides responsible for the hepatic uptake of the major metabolite of epyrifenacil, S‐3100‐CA, in mice” (Pharmacology Research & Perspectives, 2021).

Experiments:
human OATP1B1 = biological target: T1, human OATP1B1 (Homo sapiens, UniProt Q9Y6L6); test: Uptake assay for radiolabeled substrates, human OATP1B1 expressing 293FT cells; format: in vitro ADME; details: for Ratio of uptake amount relative to the uptake into mock cells: 10‐min incubation
T1 construct: expressed in transfected cells; host or cells: 293FT cells
T1 sequence (Q9Y6L6 1-691): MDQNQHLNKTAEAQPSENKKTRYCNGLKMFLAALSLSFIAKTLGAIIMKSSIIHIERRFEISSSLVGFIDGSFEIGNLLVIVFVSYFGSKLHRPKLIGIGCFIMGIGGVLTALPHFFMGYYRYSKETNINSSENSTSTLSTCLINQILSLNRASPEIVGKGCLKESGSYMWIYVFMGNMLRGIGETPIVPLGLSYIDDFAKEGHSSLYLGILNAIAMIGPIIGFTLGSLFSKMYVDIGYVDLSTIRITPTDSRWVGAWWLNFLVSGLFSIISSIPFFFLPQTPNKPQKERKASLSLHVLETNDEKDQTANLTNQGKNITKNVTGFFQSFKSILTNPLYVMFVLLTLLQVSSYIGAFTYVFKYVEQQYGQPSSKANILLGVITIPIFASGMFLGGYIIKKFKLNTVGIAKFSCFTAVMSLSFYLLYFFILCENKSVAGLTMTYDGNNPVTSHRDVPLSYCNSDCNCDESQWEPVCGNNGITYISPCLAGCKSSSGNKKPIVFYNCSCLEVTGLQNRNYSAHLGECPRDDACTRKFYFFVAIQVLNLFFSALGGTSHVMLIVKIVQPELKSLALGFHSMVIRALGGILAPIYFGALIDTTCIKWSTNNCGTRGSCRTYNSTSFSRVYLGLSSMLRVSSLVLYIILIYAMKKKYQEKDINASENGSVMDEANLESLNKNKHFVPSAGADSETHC
Description: (§1) 293FT cells were purchased from Thermo Fisher Scientific, Inc.. The cells were grown in Dulbecco's modified Eagle medium (supplemented with 4.5 g/L glucose and 2 mM L‐glutamine) at 37°C, 5% CO2, and 95% humidity. The cells were passaged 3 times per week by harvesting cells using trypsin and plating at a density of 1.0 × 10^4 cells/cm^2 in a 10 cm cell culture plate for maintenance culture. The 293FT cells were detached using trypsin and re‐seeded at a density of 2.5 × 10^4 cells/cm^2 in BioCoat™ Collagen I 6‐well plates (Corning Inc.) for transfection and then treated with 1.2 μg of plasmid vector and 3.2 μl of Lipofectamine™ 2000 Transfection Reagent (Thermo Fisher Scientific, Inc.) according to the manufacturer's instructions. After a 3‐h treatment, the transfection medium was replaced with a fresh cell culture medium and incubated at 37°C with 95% humidity and 5% CO2 until ready for the assay.
(§2) Transport experiments were conducted approximately 24 h post‐transfection. The experiments were initiated by aspirating culture medium and addition of pre‐warmed radiolabeled substrate solution (final 1.0% of acetonitrile or 0.9% of ethanol in phosphate‐buffered saline (PBS[−])) to each well. After a 10‐min incubation, cells were washed twice with 1 ml of ice‐cold PBS(−) and lysed with 700 μl of 1.0 M NaOH for 3 h or more at room temperature. The lysate was transferred to a 1.5‐ml tube, and neutralized with 350 μl of 2.0 M HCl and 350 μl of 2.0% sodium dodecyl sulfate (SDS) solution. From the lysate, 1.0 ml was transferred to a vial containing 10 ml of Emulsifier Scintillator Plus to measure the radioactivity in the LSC. The protein concentration of the cell lysate was also measured using a Pierce™ BCA Protein Assay Kit (Thermo Fisher Scientific, Inc.), which was used to normalize, according to the cell number, the radioactivity in the cell lysate extract. The protein assay was performed in duplicate. Each sample type was assayed in triplicate wells, and each run was performed twice. When the difference in mean uptake between OATP expressing cells and mock cells was more than 2 times, the OATP was judged to be involved in transportation of the substrate. […] Each sample type was assayed in triplicate wells.

mouse Oatp1b2 = biological target: T2, mouse Oatp1b2 (Mus musculus, UniProt Q9JJL3); test: Uptake assay for radiolabeled substrates, mouse Oatp1b2 expressing 293FT cells; details: 10‐min incubation
T2 sequence (Q9JJL3 1-689): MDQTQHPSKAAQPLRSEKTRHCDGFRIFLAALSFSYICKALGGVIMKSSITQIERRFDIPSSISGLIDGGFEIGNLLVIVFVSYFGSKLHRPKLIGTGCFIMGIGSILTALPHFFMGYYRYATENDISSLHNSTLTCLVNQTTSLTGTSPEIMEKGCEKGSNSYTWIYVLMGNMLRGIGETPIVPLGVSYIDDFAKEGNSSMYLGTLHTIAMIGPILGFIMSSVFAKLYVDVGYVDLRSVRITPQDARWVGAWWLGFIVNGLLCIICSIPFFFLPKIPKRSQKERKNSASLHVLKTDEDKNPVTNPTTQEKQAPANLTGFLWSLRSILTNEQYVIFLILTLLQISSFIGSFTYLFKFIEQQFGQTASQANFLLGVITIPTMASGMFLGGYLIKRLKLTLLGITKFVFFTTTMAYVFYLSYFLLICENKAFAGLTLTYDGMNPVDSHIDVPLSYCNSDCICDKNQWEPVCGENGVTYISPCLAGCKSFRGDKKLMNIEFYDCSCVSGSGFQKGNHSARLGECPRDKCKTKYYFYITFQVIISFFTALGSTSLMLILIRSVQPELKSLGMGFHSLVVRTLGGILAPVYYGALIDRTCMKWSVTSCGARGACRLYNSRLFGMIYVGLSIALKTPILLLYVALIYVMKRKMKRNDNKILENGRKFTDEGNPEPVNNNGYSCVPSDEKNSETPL
Description: as §1, §2

Row | SMILES | Uptake, times higher than in mock cells (human OATP1B1) [times] | Ratio of uptake amount relative to the uptake into mock cells (human OATP1B1; Run_1, mean of 3 replicates) | Ratio of uptake amount relative to the uptake into mock cells (human OATP1B1; Run_2, mean of 3 replicates) | Ratio of uptake amount relative to the uptake into mock cells (mouse Oatp1b2; Run_1) | Ratio of uptake amount relative to the uptake into mock cells (mouse Oatp1b2; Run_2)
1 | C[C@]12CC[C@@H]3c4ccc(OS(=O)(=O)O)cc4CC[C@H]3[C@@H]1CCC2=O [E3S, Estrone 3‐sulfate] | > 50 | 69.9 | 81.9 | 23.8 | 19.7
2 | C[C@]12CC[C@@H]3c4ccc(O)cc4CC[C@H]3[C@@H]1CC[C@@H]2O[C@@H]1O[C@H](C(=O)O)[C@@H](O)[C@H](O)[C@H]1O [E217βG, Estradiol 17β‐D‐glucuronide] | > 50 | 48.2 | 55.6 | 8.3 | 14.7
3 | Cn1c(C(F)(F)F)cc(=O)n(-c2cc(Oc3cccnc3OCC(=O)O)c(Cl)cc2F)c1=O [S‐3100‐CA] | – | 5.7 | 6.2 | 11.7 | 6.2
